Test results: patent US10770169B2, “Method of providing a treatment to a subject based on a dynamic pathway map” (THE REGENTS OF THE UNIVERSITY OF CALIFORNIA, priority 2010, dated 2020)
Like-named read-outs stand apart in the source and are kept apart here.

Assays:
[1] = test system: panel of 55 breast cancer cell lines; assay: Cell growth inhibition assay (Cell Titer Glo, 72 h, 9 doses; GI50, TGI, LC50); type: cell-based, human; details: Homo sapiens, read-out: GI50 (converted)
[2] = test system: luminal, basal, claudin-low and ERBB2AMP breast cancer cell lines; assay: Associations of clinically relevant subtypes and response (non-parametric ANOVA or t-test on GI50 ranks); type: cell-based, human; details: Table 6; most sensitive subtype, FDR p<0.20
Procedure, shortened: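 GI50 values were compared between cell-line subtype groups by non-parametric ANOVA or t-test on ranks. P-values from three test sets were combined and FDR-corrected. Significant three-group effects were followed by post-hoc comparison of each group against all others, and FDR p<0.20 counted as significant.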

With `CO[C@H]1C[C@@H]2CC[C@@H](C)[C@@](O)(O2)C(=O)C(=O)N2CCCC[C@H]2C(=O)O[C@H]([C@H](C)C[C@@H]2CC[C@@H](OC(=O)C(C)(CO)CO)[C@H](OC)C2)CC(=O)[C@H](C)/C=C(\C)[C@@H](O)[C@@H](OC)C(=O)[C@H](C)C[C@H](C)/C=C/C=C/C=C/1C` [Temsirolimus] the GI50 ([1]; 600MPE cell line, censored GI50 values) was 18200 nM, the GI50 ([1]; AU565, AU565 cell line, censored GI50 values) was 100 nM and the GI50 ([1]; AU565, cell line AU565) was 100 nM. It also gave a GI50 ([1]; BT-20, BT20 cell line, censored GI50 values) of 776 nM, a GI50 ([1]; BT-20, cell line BT20) of 776 nM and a GI50 ([1]; BT-474, BT474 cell line, censored GI50 values) of 13.5 nM. It also gave a GI50 ([1]; BT-474, cell line BT474) of 13.5 nM, a GI50 ([1]; BT-483, BT483 cell line, censored GI50 values) of 66100 nM and a GI50 ([1]; BT-483, cell line BT483) of 66100 nM. For the same compound, the GI50 ([1]; CAMA-1, CAMA1 cell line, censored GI50 values) was 43.7 nM, the GI50 ([1]; CAMA-1, cell line CAMA1) was 43.7 nM and the GI50 ([1]; HCC38, HCC38 cell line, censored GI50 values) was 389 nM. For the same compound, the GI50 ([1]; HCC38, cell line HCC38) was 389 nM, the GI50 ([1]; HCC70, HCC70 cell line, censored GI50 values) was 407 nM and the GI50 ([1]; HCC70, cell line HCC70) was 407 nM. It also gave a GI50 ([1]; HCC1143, HCC1143 cell line, censored GI50 values) of 1580 nM, a GI50 ([1]; HCC1143, cell line HCC1143) of 1580 nM and a GI50 ([1]; HCC1187, HCC1187 cell line, censored GI50 values) of 794 nM. The GI50 ([1]; HCC1187, cell line HCC1187) was 794 nM, the GI50 ([1]; HCC1395, HCC1395 cell line, censored GI50 values) was 12600 nM and the GI50 ([1]; HCC1395, cell line HCC1395) was 12600 nM. The GI50 ([1]; HCC1419, HCC1419 cell line, censored GI50 values) was 52.5 nM, the GI50 ([1]; HCC1419, cell line HCC1419) was 52.5 nM and the GI50 ([1]; HCC1428, HCC1428 cell line, censored GI50 values) was 6170 nM. The GI50 ([1]; HCC1428, cell line HCC1428) was 6170 nM, the GI50 ([1]; HCC1500, HCC1500 cell line, censored GI50 values) was 24500 nM and the GI50 ([1]; HCC1500, cell line HCC1500) was 24500 nM. The GI50 ([1]; HCC1806, HCC1806 cell line, censored GI50 values) was 20400 nM, the GI50 ([1]; HCC1806, cell line HCC1806) was 20400 nM and the GI50 ([1]; HCC1937, HCC1937 cell line, censored GI50 values) was 437 nM. The GI50 ([1]; HCC1937, cell line HCC1937) was 437 nM, the GI50 ([1]; HCC1954, HCC1954 cell line, censored GI50 values) was 219 nM and the GI50 ([1]; HCC1954, cell line HCC1954) was 219 nM. For the same compound, the GI50 ([1]; HCC2185 cell line, censored GI50 values) was 13.2 nM, the GI50 ([1]; HCC3153 cell line, censored GI50 values) was 20000 nM and the GI50 ([1]; LY2 cell line, censored GI50 values) was 209 nM. The GI50 ([1]; MCF7, MCF7 cell line, censored GI50 values) was 1550 nM, the GI50 ([1]; MCF7, cell line MCF7) was 1550 nM and the GI50 ([1]; MDA-MB-134-VI, MDAMB134VI cell line, censored GI50 values) was 166 nM. The GI50 ([1]; MDA-MB-175-VII, MDAMB175VII cell line, censored GI50 values) was 2290 nM, the GI50 ([1]; MDA-MB-361, MDAMB361 cell line, censored GI50 values) was 251 nM and the GI50 ([1]; MDA-MB-415, MDAMB415 cell line, censored GI50 values) was 75.9 nM. For the same compound, the GI50 ([1]; MDA-MB-436, MDAMB436 cell line, censored GI50 values) was 53700 nM, the GI50 ([1]; MDA-MB-453, MDAMB453 cell line, censored GI50 values) was 100 nM and the GI50 ([1]; MDA-MB-468, MDAMB468 cell line, censored GI50 values) was 5620 nM. The GI50 ([1]; SK-BR-3, SKBR3 cell line, censored GI50 values) was 53.7 nM, the GI50 ([1]; SUM52PE, SUM52PE cell line, censored GI50 values) was 0.417 nM and the GI50 ([1]; SUM149PT, SUM149PT cell line, censored GI50 values) was 6170 nM. It also gave a GI50 ([1]; SUM185PE, SUM185PE cell line, censored GI50 values) of 1.1 nM, a GI50 ([1]; SUM1315MO2, SUM1315MO2 cell line, censored GI50 values) of 1120 nM and a GI50 ([1]; SUM-159-PT, SUM159PT cell line, censored GI50 values) of 229 nM. It also gave a GI50 ([1]; T47D, T47D cell line, censored GI50 values) of 1410 nM, a GI50 ([1]; UACC-812, UACC812 cell line, censored GI50 values) of 575 nM and a GI50 ([1]; ZR-75-1, ZR751 cell line, censored GI50 values) of 66100 nM. The GI50 ([1]; ZR-75B, ZR75B cell line, censored GI50 values) was 107 nM, the GI50 ([1]; cell line 600MPE) was 18200 nM and the GI50 ([1]; cell line HCC2185) was 13.2 nM. For the same compound, the GI50 ([1]; cell line HCC3153) was 20000 nM, the GI50 ([1]; cell line LY2) was 209 nM and the Subtype specificity [2] was “Luminal/ERBB2AMP”.
